For this assay, the target named is hTS (recombinant human TS, thymidylate synthase) (Homo sapiens, UniProt P04818). Put plainly: UV absorbance at […] nm, TS activity. In kind it is biochemical.
hTS (recombinant human TS, thymidylate synthase), sequence (P04818 2-313): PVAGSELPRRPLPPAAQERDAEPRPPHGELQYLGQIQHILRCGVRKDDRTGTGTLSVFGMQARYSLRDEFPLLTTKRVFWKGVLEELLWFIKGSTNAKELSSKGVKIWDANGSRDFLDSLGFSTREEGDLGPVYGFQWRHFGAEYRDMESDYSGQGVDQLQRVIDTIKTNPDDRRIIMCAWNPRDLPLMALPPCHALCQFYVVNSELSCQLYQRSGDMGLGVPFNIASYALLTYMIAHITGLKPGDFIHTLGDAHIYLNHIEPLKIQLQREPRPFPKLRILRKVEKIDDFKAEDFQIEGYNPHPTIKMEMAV
As usually defined, the IC50 is the point on the concentration scale where inhibition reaches its midpoint. Take `O=c1[nH]cc(S(=O)(=O)Nc2cccc(-c3nnc(-c4ccccc4)o3)c2)c(=O)[nH]1` [7a, N-(3-(5-phenyl-1,3,4-oxadiazol-2-yl)phenyl)-2,4-dihydroxypyrimidine-5-sulfuramide]: the IC50 stood at 3150 ± 610 nM.

As for `Cc1ccccc1-c1nnc(-c2cccc(NS(=O)(=O)c3c[nH]c(=O)[nH]c3=O)c2)o1` [7b, N-(3-(5-(o-tolyl)-1,3,4-oxadiazol-2-yl)phenyl)-2,4-dihydroxypyrimidine −5-sulfonamide], the IC50 worked out at 2750 ± 290 nM.

For the compound `Cc1cccc(-c2nnc(-c3cccc(NS(=O)(=O)c4c[nH]c(=O)[nH]c4=O)c3)o2)c1` [7c, N-(3-(5-(m-tolyl)-1,3,4-oxadiazol-2-yl)phenyl)-2,4-dihydroxypyrimidine-5-sulfonamide], the IC50 was found to be 1460 ± 370 nM.

For `Cc1ccc(-c2nnc(-c3cccc(NS(=O)(=O)c4c[nH]c(=O)[nH]c4=O)c3)o2)cc1` [7d, N-(3-(5-(p-tolyl)-1,3,4-oxadiazol-2-yl)phenyl)-2,4-dihydroxypyrimidine-5-sulfonamide], the half-maximal inhibitory concentration (IC50) turned out to be 1790 ± 120 nM.

Regarding `O=c1[nH]cc(S(=O)(=O)Nc2cccc(-c3nnc(-c4ccccc4Cl)o3)c2)c(=O)[nH]1` [7e, N-(3-(5-(2-chlorophenyl)-1,3,4-oxadiazol-2-yl)phenyl)-2,4-dihydroxypyrimidine-5-sulfonamide], the IC50 came out at 650 ± 430 nM.

In the case of `O=c1[nH]cc(S(=O)(=O)Nc2cccc(-c3nnc(-c4cccc(Cl)c4)o3)c2)c(=O)[nH]1` [7f, N-(3-(5-(3-chlorophenyl)-1,3,4-oxadiazol-2-yl)phenyl)-2,4-dihydroxypyrimidine-5-sulfonamide], the IC50 was found to be 110 ± 30 nM.

`O=c1[nH]cc(S(=O)(=O)Nc2cccc(-c3nnc(-c4ccc(Cl)cc4)o3)c2)c(=O)[nH]1` [7g, N-(3-(5-(4-chlorophenyl)-1,3,4-oxadiazol-2-yl)phenyl)-2,4-dihydroxypyrimidine-5-sulfonamide]: the IC50 amounted to 440 ± 100 nM.

With `O=c1[nH]cc(S(=O)(=O)Nc2cccc(-c3nnc(-c4ccccc4F)o3)c2)c(=O)[nH]1` [7h, N-(3-(5-(2-fluorophenyl)-1,3,4-oxadiazol-2-yl)phenyl)-2,4-dihydroxypyrimidine-5-sulfonamide], the IC50 turned out to be 5180 ± 730 nM.

`O=c1[nH]cc(S(=O)(=O)Nc2cccc(-c3nnc(-c4cccc(F)c4)o3)c2)c(=O)[nH]1` [7i, N-(3-(5-(3-fluorophenyl)-1,3,4-oxadiazol-2-yl)phenyl)-2,4-dihydroxypyrimidine-5-sulfonamide]: the IC50 was 4610 ± 1100 nM.

As for `O=c1[nH]cc(S(=O)(=O)Nc2cccc(-c3nnc(-c4ccccc4Br)o3)c2)c(=O)[nH]1` [7k, N-(3-(5-(2-bromophenyl)-1,3,4-oxadiazol-2-yl)phenyl)-2,4-dihydroxypyrimidine-5-sulfonamide], the IC50 amounted to 1160 ± 370 nM.

Take `O=c1[nH]cc(S(=O)(=O)Nc2cccc(-c3nnc(-c4cccc(Br)c4)o3)c2)c(=O)[nH]1` [7l, N-(3-(5-(3-bromophenyl)-1,3,4-oxadiazol-2-yl)phenyl)-2,4-dihydroxypyrimidine-5-sulfonamide]: the IC50 was 930 ± 280 nM.

Regarding `O=c1[nH]cc(S(=O)(=O)Nc2cccc(-c3nnc(-c4ccc(Br)cc4)o3)c2)c(=O)[nH]1` [7m, N-(3-(5-(4-bromophenyl)-1,3,4-oxadiazol-2-yl)phenyl)-2,4-dihydroxypyrimidine-5-sulfonamide], the concentration for half-maximal inhibition (IC50) was 1290 ± 120 nM.

Turning to `Nc1nc2[nH]cc(CCc3ccc(C(=O)N[C@@H](CCC(=O)O)C(=O)O)cc3)c2c(=O)[nH]1` [PTX], the concentration for half-maximal inhibition (IC50) turned out to be 2440 ± 880 nM.

The record behind these values is article PMC7584679 (Journal of Advanced Research, 2020).
